Measurements taken from publication PMC11931052, “Efficacy of dispirotripiperazine PDSTP in a golden Syrian hamster model of SARS-CoV-2 infection” (Frontiers in Microbiology, 2025).
“Also recorded” adds a separate entry of the source.

Tests used:
[1] = Cytotoxicity (MTT test) in Vero E6 cell line; type: cell-based, African Green Monkey (Cercopithecus aethiops); settings: African green monkey, mean ± SD, three independent experiments
Experimental: (§1) The microtetrazolium test (MTT test) was used to study the cytotoxicity of the compounds. Vero cells were seeded in 96-well plates at an initial density of 3×10^5 cells/mL, in Gibco Dulbecco’s Modified Eagle Medium supplemented with L-glutamine and 25 mg/L kanamycin, and 10 % fetal bovine serum (FBS) (DMEM, Thermo Fisher Scientific, Waltham, MA USA). Cell cultures were then incubated at 37 °C in a 5 % CO2 atmosphere, in the absence or presence of serial dilutions of test compounds. The test medium used for the cytotoxic assay as well as for the antiviral assay contained 1 % of the appropriate serum. Cell viability was determined after 72 h at 37 °C by the MTT method as previously reported. The cell viability was expressed as a percentage of the control. The 50% cytotoxic concentration (CC50) of each compound was defined as the concentration of the compound that reduced the absorbance (OD570) of the treated cells to 50% when compared with that of untreated cells. CC50 mean values were calculated from at least three independent experiments.

[2] = tested on: SARS-CoV-2 clinical isolate VR PV10734; assay: Plaque reduction assay, SARS-CoV-2 VR PV10734 in Vero E6 cells; type: cell-based; settings: Severe acute respiratory syndrome coronavirus 2, Vero C1008, mean ± SD, read-out: Antiviral activity IC50 against coronaviruses, SARS-CoV-2 clinical isolate VR PV10734, PR
Experimental: Vero E6 cells were incubated in the presence of PDSTP and reference compounds (100.0, 20.0, 4.0, and 0.8 μM concentrations) for 1 h at 37°C in a 5% CO2 and then infected for 1 h with 250 μL of the corresponding virus (SARS-CoV-2 PV10734 or HCoV-229E) dilutions to obtain 50–100 PFU/well. The plates were then incubated for 1 h at 37°C in a 5% CO2 atmosphere. Following the removal of the unabsorbed virus, 400 μL of the medium (D-MEM with L-glutamine, 4,500 mg/L D-glucose, and 1% inactivated FBS) containing 0.75% methyl-cellulose (M0512, viscosity 4,000 cP, Sigma-Aldrich, United States) and the serial dilutions of the compounds were added and incubated for 4 (SARS-CoV-2) or 2 (HCoV-229E) days at 37°C in a 5% CO2 atmosphere. Subsequently, the cells were fixed and stained with a 0.2% crystal violet solution (V5265, Sigma-Aldrich, United States) and then the number of plaques was calculated. The degree of cell growth/viability and viral multiplication at each drug concentration tested was expressed as a percentage of the untreated control. Concentrations resulting in 50% inhibition (CC50 or EC50) were determined using linear regression analysis.

[3] = Cytotoxicity (MTT test) in Vero-76 cells; type: cell-based, African Green Monkey (Cercopithecus aethiops); settings: African green monkey
Experimental: as §1

HCoV-OC43 = assay: MTT test, HCoV-OC43 in Vero-76 cells; type: cell-based; settings: Betacoronavirus 1, OC43, Vero 76, read-out: IC50 (HCoV-OC43)
[4] = tested on: SARS-CoV-2 ancestral PV10734 strain; assay: Yield reduction assay in Calu-3 cells, SARS-CoV-2 ancestral PV10734 strain; type: cell-based; settings: PDSTP 20 and 4 μM, day 3 post-infection, p < 0.0001
SARS-COV-2 PV10734 [5] = assay: Virucidal activity assay; settings: 20 µM; 4°C and 37°C for 2 hours
Experimental: PDSTP (20 µM) was incubated with 3×10^5 PFU/mL of SARS-COV-2 PV10734 at either 4 and 37 °C for 2 hours. The mixture of the viral sample without a test compound was used as an untreated control. At the end of the incubation period, samples were serially diluted in media and titers were determined on Vero-76 cells at high dilutions, at which the compound was not active. Virus titers were determined by plaque assay in Vero-76 cells.

SARS-COV-2 PV10734 [6] = assay: Time-of-addition and cell pre-treatment assay in Vero cells; type: cell-based
SARS-COV-2 PV10734 [7] = assay: Penetration assay in Vero cells; type: cell-based; settings: at higher concentrations
Experimental: A penetration assay was performed with small modifications according to the method reported earlier ([Chang et al., 2012]). A 24-well tissue culture plate was seeded with Vero cells (3 × 10^5 cells/well), which were then incubated overnight at 37°C in a 5% CO2 atmosphere. The cells were pre-chilled on ice for 1 h, and the medium was removed. The cells were infected with 100 PFU of SARS-CoV-2 PV10734 on ice for 2 h. The medium containing the unbound virus was then removed. Various concentrations of PDSTP (100–0.8 μM) in the medium were added, and the cells were incubated at 37°C for 1 h to trigger endocytosis of the virus. The infected cells were then treated with alkaline PBS (pH 11) for 1 min to inactivate viruses that had not penetrated the cells. Acidic PBS (pH 3) was then added to neutralize the mixture. The neutralized medium was removed; the cells were overlaid with methylcellulose in media and then were incubated at 37°C. After the 72-h incubation period, the cells were stained, and the plaques were determined by counting.

[8] = Chronic toxicity, intranasal administration, rats; type: in vivo; settings: repeated administration for 14 days, 10-200 mg/kg
mouse bone marrow cells = assay: Chromosomal aberrations in mouse bone marrow cells; type: in vivo, F1 hybrids of SWAxC57BL/6 mice; settings: 400 mg/kg and 1000 mg/kg topically
Experimental: PDSTP doses tested: 400 mg/kg and 1000 mg/kg
Test subjects: F1 hybrids of SWAxC57BL/6 mice.
Method of administration: topically

[9] = Allergenicity study, delayed-type hypersensitivity, mice; type: in vivo; settings: SWA x C57BL/6 mice
[10] = Immunotoxicity study, long-term topical application; type: in vivo
Text: Conclusion: PDSTP compound has no effect on humoral immunity and functional activity of macrophages when applied topically for 30 days in doses up to 100 TD.

[11] = Reproductive toxicity: embryotoxicity study; type: in vivo, white laboratory rats; settings: 10% solution, daily topical application, days 6 to 19 of gestation
Text: (§2) PDSTP doses tested: 10% solution
(§3) Test subjects: white laboratory rats of both sexes
Pregnant rats from 6 to 19 days of gestation received daily topical application of PDSTP on 5% of the body surface area (3x5 cm area).

[12] = Reproductive toxicity: postnatal development of F1 generation offspring; type: in vivo, white laboratory rats; settings: female rats received PDSTP from the 6th day of gestation to delivery
Experimental: as §2, §3
During the study of postnatal development and fertility of F1 generation offspring born from female rats that received PDSTP from the 6th day of gestation to delivery, the rates of physical development, the rate of maturation of sensory-motor reflexes and emotional-motor behavior, as well as fertility were evaluated in comparison with rats born from intact females.

With `Cc1nc(N2CC[N+]3(CC2)CC[N+]2(CCNCC2)CC3)c([N+](=O)[O-])c(N2CC[N+]3(CC2)CC[N+]2(CCNCC2)CC3)n1.Cl.Cl.O.O.O.O.O.O.O.O.O.[Cl-].[Cl-].[Cl-].[Cl-]` [PDSTP, 3,3′-(2-methyl-5-nitropyrimidine-4,6-diyl)bis-3,12-diaza-6,9-diazonia-dispiro[5.2.5.2]hexadecane tetrachloride dihydrochloride nonahydrate] as the compound, how does the CC50 at 72 h [1] read?
The CC50 at 72 h was 183 ± 40.5 µM.

And the IC50 [2]?
Its IC50 is 1.8 ± 0.3 µM.

And the CC50 at 72 h [3]?
The CC50 at 72 h was greater than 100 µM.

And the IC50 (HCoV-OC43)?
The IC50 was 0.7 ± 0.4 µM.

And the “Reduction of viral titer” value [4]?
The value was roughly 100 fold.

What about the “Virucidal activity (direct impact on viral infectivity)” value (SARS-COV-2 PV10734 [5]) of the same compound?
The value was “no direct impact; also recorded: lacks virucidal activity”.

And the “Antiviral activity, pre-treatment and early stages of infection” value (SARS-COV-2 PV10734 [6])?
The value was “exhibited antiviral activity”.

What about the “Inhibitory effect at the later stages of infection” value (SARS-COV-2 PV10734 [6]) of the same compound?
Its value is “barely noticeable”.

And the “Viral inhibition, penetration experiment” value (SARS-COV-2 PV10734 [7])?
Its value is “only modest viral inhibition”.

And the “Toxic effect on organs and systems” value [8]?
Its value is “toxic effect on organs and systems was not revealed”.

What about the “Induction of chromosomal aberrations” value (mouse bone marrow cells) of the same compound?
Its value is “did not reveal the ability to induce chromosomal aberrations”.

What about the Delayed-type hypersensitivity [9] of the same compound?
The Delayed-type hypersensitivity was “No delayed-type hypersensitivity was detected”.

What about the “Effect on cellular immunity” value ([10]; long-term topical applications, immunosuppression only at maximum dose of 100 TD, reversible 14 days after withdrawal) of the same compound?
The value was “tends to suppress cellular immunity”.

What about the “Effect on humoral immunity and functional activity of macrophages” value ([10]; topically for 30 days in doses up to 100 TD) of the same compound?
The value was “no effect”.

What about the Embryotoxic effect [11] of the same compound?
Its Embryotoxic effect is “no adverse embryotoxic effect”.

And the “Effect on fertility of F1 generation offspring” value [12]?
Its value is “No statistically significant effect”.

What about the “Effect on postnatal development of F1 generation offspring” value [12] of the same compound?
The value was “does not adversely affect the studied parameters”.
